In publication PMC3848914, “Histone deacetylase (HDAC) inhibitory and antiproliferative activities of phenolic-rich extracts derived from the rhizome of Hydnophytum formicarum Jack.: sinapinic acid acts as HDAC inhibitor” (BMC Complementary and Alternative Medicine, 2013):
Where two headings read alike, the source gives them in different places.

Columns and labels:
[1] = system: HeLa cells; experiment: Antiproliferative activity assay (WST-8), HeLa cells; assay type: cell-based, human; settings: compounds
Protocol: (§1) Cells were seeded in a 96-well plate at cell density of 10^4 cells/well and incubated for 24 hours. Sample groups were treated with different concentrations of H. formicarum Jack. rhizome extracts (0.5-3.0 mg/mL), sinapinic acid (0.5-3.0 mM), or sodium butyrate (0.5-3.0 mM) for 24, 48 and 72 hours. Vehicle control groups were added with DMSO (final concentration of 0.05%) or double distilled water. Cell proliferation assays were performed using a WST-8 Cell Proliferation Assay Kit (BioVision, Mountain View, CA, U.S.A.) according to the manufacturer’s instructions. Absorbance (A) was measured at 415 nm using a microtiter plate reader (Bio-Rad Laboratories, Hercules, CA, U.S.A.). The absorbance at 655 nm was used as a reference wavelength. Cell proliferation or cell growth was determined as a percentage of the vehicle control by an equation of;
(§2) %CellProliferation=controlA‒sampleA/controlA×100.

[2] = system: HeLa cells; experiment: Apoptosis analysis (Annexin V/PI flow cytometry) in HeLa cells; assay type: cell-based, human; settings: 6 h-treatment
Protocol: Apoptosis analysis was performed by using a Vybrant Apoptosis Assay Kit #2 (Molecular Probes, Invitrogen Corporation, Carlsbad, CA, U.S.A.) according to the manufacturer’s instructions. Briefly, cells were seeded at 1.2 × 10^6 cells/4 ml in a 4.5-cm dish, incubated for 24 hours, and treated with different concentrations of the extracts or sinapinic acid for 6 hours. Cells were harvested by trypsinization, washed with cold PBS, and resuspended in the Annexin-binding buffer. Cell density was determined and diluted in the annexin-binding buffer to 10^5 cells per assay. Cells were incubated with Alexa Fluor 488 Annexin V and Propidium iodide (PI) at room temperature for 15 minutes. Following the incubation, cells were analyzed by flow cytometry using a Beckman Coulter Cytomics FC500 MPL flow cytometry (Beckman Coulter, Miami, FL, U.S.A.). The flow cytometry results were confirmed by viewing the cells under a fluorescence microscope.

[3] = system: histone H4 acetylation in HeLa cells; experiment: HDAC inhibition in HeLa cells: histone acetylation by AUT gel electrophoresis; assay type: cell-based, human; settings: 6 h-treatment
Protocol: Cells grown in a 4.5-cm dish were treated with either solvent control or the sample for 6 hours, and the histone proteins were then isolated according to the Abcam’s protocol (Abcam Inc., Cambridge, MA, U.S.A.) with some modifications. In brief, cells were harvested by trypsinization, washed with PBS, and then resuspended in Triton Extraction Buffer (TEB; PBS containing 0.5% (v/v) Triton X-100, 2 mM phenylmethylsulfonyl fluoride, 0.02% (w/v) NaN3) at a cell density of 10^5 cells/ml. The cells were incubated on ice and agitated periodically for 10 minutes. The suspension was centrifuged at 7,500 rpm for 10 minutes at 4°C to spin down the nuclei and the supernatant was discarded. The nuclei pellet was resuspended in 0.2 M HCl at a density of 10^6 nuclei/ml and incubated overnight at 4°C. […] Protein concentration was measured by using a Bio-Rad protein assay kit (Bio-Rad Laboratories, Hercules, CA, U.S.A.) based on the Bradford method.
Inhibition on acetylation of cellular histones was analyzed by gel electrophoresis using acid urea/Triton-X-100 (AUT) gels. […]
HDAC inhibition by ethanolic crude extract, phenolic-rich extract and sinapinic acid in HeLa cells was analyzed by AUT gel electrophoresis, whereby each cellular core histone (H2A, H2B, H3, and H4) with different extent of acetylation can be separated. […]

[4] = system: MCF-7 cells; experiment: Antiproliferative activity assay (WST-8), MCF-7 cells; assay type: cell-based, human; settings: compounds
Protocol: as §1, §2

[5] = system: HCT116 cells; experiment: Antiproliferative activity assay (WST-8), HCT116 cells; assay type: cell-based, human; settings: compounds
Protocol: as §1, §2

[6] = system: Vero cells; experiment: Antiproliferative activity assay (WST-8), Vero cells; assay type: cell-based; settings: compounds
Protocol: as §1, §2

[7] = system: HT29 cells; experiment: Antiproliferative activity assay (WST-8), HT29 cells; assay type: cell-based, human; settings: compounds
Protocol: as §1, §2

[8] = molecular target: HDAC enzymes (HeLa nuclear extract); experiment: In vitro HDAC inhibition activity assay (Fluor-de-Lys kit); assay type: biochemical, human
Protocol: HDAC inhibitory activity of the H. formicarum Jack. rhizome extracts, sinapinic acid (Sigma) and sodium butyrate (Sigma) was determined by using the Fluor-de-Lys HDAC activity assay kit (Biomol, Enzo Life Sciences International, Inc., Plymount Meeting, PA, U.S.A.). The assay was performed according to the manufacturer’s instructions. Fluorescence was measured using a spectra Max Gemini XPS microplate spectrofluorometer (Molecular Devices, Sunnyvale, CA, U.S.A.) with excitation at 360 nm and emission at 460 nm. Inhibition of HDAC activity was monitored by a decrease in fluorescence signal.
The effect of various polarity extracts including fractionated solvent extracts from hexane soluble fraction, ethyl acetate soluble fraction, methanol soluble fraction and also ethanolic crude extract on in vitro HDAC activity was examined by using HeLa nuclear extract as a source of the HDAC enzymes.

[9] = system: Jurkat cells; experiment: Antiproliferative activity assay (WST-8), Jurkat cells; assay type: cell-based, human; settings: compounds
Protocol: as §1, §2

[10] = 72 h, read-out: IC50 values, HeLa cells 72 h

COc1cc(/C=C/C(=O)O)cc(OC)c1O [Sinapinic acid, sinapinic acid]
IC50 ([1]; Homo sapiens, HeLa, 24 h, 24 h, read-out: IC50 values, HeLa cells 24 h): 2.35 ± 0.03 mM
IC50 ([1]; Homo sapiens, HeLa, 48 h, 48 h, read-out: IC50 values, HeLa cells 48 h): 2.04 ± 0.06 mM
IC50 ([1]; Homo sapiens, HeLa, 72 h, 72 h, read-out: IC50 values, HeLa cells 72 h): 0.91 ± 0.02 mM
IC50 [1, 10]: 0.9 ± 0.02 mM
Number of Early Apoptotic cells (%) ([2]; 4.5 mM): 4.40 ± 1.27%
Number of Late Apoptotic cells (%) ([2]; 4.5 mM): 1.75 ± 0.78%
Number of Early Apoptotic cells (%) ([2]; 9.0 mM): 8.40 ± 1.55%
Number of Late Apoptotic cells (%) ([2]; 9.0 mM): 3.25 ± 1.06%
Number of Early Apoptotic cells (%) ([2]; 9.0 mM, listed as sinapinic acid): 8.4%
Histone H4 acetylation in HeLa cells (in words) [3]: clearly increased di- and tri-acetylated H4 molecules
IC50 ([4]; Homo sapiens, MCF7, 24 h, read-out: IC50 values, MCF-7 cells 24 h): > 3 mM
IC50 ([4]; Homo sapiens, MCF7, 48 h, read-out: IC50 values, MCF-7 cells 48 h): > 3 mM
IC50 ([4]; Homo sapiens, MCF7, 72 h, read-out: IC50 values, MCF-7 cells 72 h): > 3 mM
IC50 ([5]; Homo sapiens, HCT-116, 24 h, read-out: IC50 values, HCT116 cells 24 h): > 3 mM
IC50 ([5]; Homo sapiens, HCT-116, 48 h, read-out: IC50 values, HCT116 cells 48 h): 2.2 ± 0.15 mM
IC50 ([5]; Homo sapiens, HCT-116, 72 h, read-out: IC50 values, HCT116 cells 72 h): 2.1 ± 0.06 mM
IC50 ([6]; Chlorocebus sabaeus, Vero, 24 h, read-out: IC50 values, Vero cells 24 h): > 3 mM
IC50 ([6]; Chlorocebus sabaeus, Vero, 48 h, read-out: IC50 values, Vero cells 48 h): > 3 mM
IC50 ([6]; Chlorocebus sabaeus, Vero, 72 h, read-out: IC50 values, Vero cells 72 h): > 3 mM
IC50 ([7]; Homo sapiens, HT-29, 24 h, read-out: IC50 values, HT29 cells 24 h): 2.97 ± 0.05 mM
IC50 ([7]; Homo sapiens, HT-29, 48 h, read-out: IC50 values, HT29 cells 48 h): 2.2 ± 0.03 mM
IC50 ([7]; Homo sapiens, HT-29, 72 h, read-out: IC50 values, HT29 cells 72 h): 1.6 ± 0.02 mM
IC50 [8]: 2.27 ± 0.13 mM
IC50 ([9]; Homo sapiens, Jurkat, 24 h, read-out: IC50 values, Jurkat cells 24 h): > 3 mM
IC50 ([9]; Homo sapiens, Jurkat, 48 h, read-out: IC50 values, Jurkat cells 48 h): > 3 mM
IC50 ([9]; Homo sapiens, Jurkat, 72 h, read-out: IC50 values, Jurkat cells 72 h): 2.8 ± 0.12 mM

CCCC(=O)[O-].[Na+] [Sodium butyrate, sodium butyrate]
IC50 ([1]; 24 h, read-out: IC50 values, HeLa cells 24 h): 2.63 ± 0.06 mM
IC50 ([1]; 48 h, read-out: IC50 values, HeLa cells 48 h): 2.22 ± 0.13 mM
IC50 ([1]; 72 h, listed as sodium butyrate, read-out: IC50 values, HeLa cells 72 h): 1.22 ± 0.03 mM
IC50 [1, 10]: 1.2 ± 0.03 mM
Number of Early Apoptotic cells (%) ([2]; 4.5 mM): 3.75 ± 1.06%
Number of Late Apoptotic cells (%) ([2]; 4.5 mM): 1.00 ± 0.28%
Number of Early Apoptotic cells (%) ([2]; 9.0 mM): 7.60 ± 1.27%
Number of Late Apoptotic cells (%) ([2]; 9.0 mM): 2.05 ± 1.06%
Number of Early Apoptotic cells (%) ([2]; 9.0 mM, listed as sodium butyrate): 7.6%
IC50 ([4]; 24 h, read-out: IC50 values, MCF-7 cells 24 h): > 3 mM
IC50 ([4]; 48 h, read-out: IC50 values, MCF-7 cells 48 h): > 3 mM
IC50 ([4]; 72 h, read-out: IC50 values, MCF-7 cells 72 h): > 3 mM
IC50 ([5]; 24 h, read-out: IC50 values, HCT116 cells 24 h): > 3 mM
IC50 ([5]; 48 h, read-out: IC50 values, HCT116 cells 48 h): 2.2 ± 0.2 mM
IC50 ([5]; 72 h, read-out: IC50 values, HCT116 cells 72 h): 2 ± 0.05 mM
IC50 ([6]; 24 h, read-out: IC50 values, Vero cells 24 h): > 3 mM
IC50 ([6]; 48 h, read-out: IC50 values, Vero cells 48 h): > 3 mM
IC50 ([6]; 72 h, read-out: IC50 values, Vero cells 72 h): > 3 mM
IC50 ([7]; 24 h, read-out: IC50 values, HT29 cells 24 h): > 3 mM
IC50 ([7]; 48 h, read-out: IC50 values, HT29 cells 48 h): > 3 mM
IC50 ([7]; 72 h, read-out: IC50 values, HT29 cells 72 h): 2.57 ± 0.03 mM
IC50 [8]: 0.97 ± 0.07 mM
IC50 ([9]; 24 h, read-out: IC50 values, Jurkat cells 24 h): > 3 mM
IC50 ([9]; 48 h, read-out: IC50 values, Jurkat cells 48 h): 2.36 ± 0.19 mM
IC50 ([9]; 72 h, read-out: IC50 values, Jurkat cells 72 h): 1.5 ± 0.3 mM

CC[C@@]1(O)C(=O)OCc2c1cc1n(c2=O)Cc2cc3ccccc3nc2-1 [Camptothecin]
Number of Late Apoptotic cells (%) ([2]; 0.1 mg/mL): 3.55 ± 1.06%
